Activity calls are given as the source filed them. The calls are words filed in the database; no cut-off is given here.

Holding throughout (assay type): functional, organism-based
Experiment [1] concerns Bombyx mori. The experiment can be described thus: Induction of precocious metamorphosis in fourth-instar larvae of Bombyx mori at 0.1 ug.
In experiment [2] the test system is Bombyx mori. The experiment can be described thus: Induction of precocious metamorphosis in newly-molted fourth-instar larvae of Bombyx mori at 1 ug.
Experiment [3] has as its system Bombyx mori. As to the kind of experiment: Induction of precocious metamorphosis in fourth-instar larvae of Bombyx mori at 40 ug.
For experiment [4], the system named is Bombyx mori. The experiment can be described thus: Induction of precocious metamorphosis in fourth-instar larvae of Bombyx mori at 10 ug.
The subject of experiment [5] is Bombyx mori. As to the kind of experiment: Induction of precocious metamorphosis in Bombyx mori.
Experiment [6] relates to Bombyx mori. As to the kind of experiment: Induction of precocious metamorphosis in newly-molted fourth-instar larvae of Bombyx mori.
The subject of experiment [7] is Bombyx mori. The experiment can be described thus: Induction of precocious metamorphosis in 24-hr old 3rd-instar larvae of Bombyx mori.
For experiment [8], the system named is Bombyx mori. The experiment can be described thus: Induction of precocious metamorphosis in fourth-instar larvae of Bombyx mori.
The test system of experiment [9] is Bombyx mori. The experiment can be described thus: Induction of precocious metamorphosis in fourth-instar larvae of Bombyx mori in presence of 20-hydroxyecdysone.
Experiment [10] has as its system Bombyx mori. As to the kind of experiment: Induction of precocious metamorphosis in fourth-instar larvae of Bombyx mori in presence of JH agonist methoprene.

Regarding `CCCC[C@H](COc1ccc(C(=O)OCC)cc1)Cc1ccccc1`, the outcome in the experiment with Bombyx mori [1] and in the experiment on Bombyx mori [2] was Active. In addition, the result with Bombyx mori [3] and in the experiment with Bombyx mori [4] was inactive.

For the molecule `CCCCCC(COc1ccc(C(=O)OCC)cc1)Cc1ccccc1` (stereo not given), in the experiment with Bombyx mori [5], the outcome was Active.

In the case of `CCCCC(COc1ccc(C(=O)OCC)cc1)Oc1ccccc1` (stereo not given), the result in the experiment on Bombyx mori [6] and in the experiment with Bombyx mori [5] was Active.

Turning to `CCOC(=O)c1ccc(OCC(CC)OC(=O)C(C)(C)C)cc1` (stereo not given), the outcome in the experiment with Bombyx mori [6] and with Bombyx mori [7] was inactive. Moreover, the result in the experiment on Bombyx mori [8] was Active.

As for `CCCCC(COc1ccc(C(=O)OCC)cc1)Oc1ccc(C)nc1` (stereo not given), the result in the experiment with Bombyx mori [6] and in the experiment on Bombyx mori [5] was Active.

Take `CCCC[C@@H](COc1ccc(C(=O)OCC)cc1)Cc1ccccc1`: the outcome in the experiment with Bombyx mori [1] and in the experiment on Bombyx mori [2] was Active. Also, the outcome in the experiment with Bombyx mori [3] and in the experiment on Bombyx mori [4] was inactive.

Consider `CCCCC(COc1ccc(C(=O)OCC)cc1)Cc1ccccc1` (racemic), for which the result in the experiment on Bombyx mori [2], with Bombyx mori [5], in the experiment on Bombyx mori [9] and in the experiment on Bombyx mori [8] was Active. The Activity result in the experiment with Bombyx mori [6] was “Dose-dependent effect”. Also, the outcome with Bombyx mori [7] and with Bombyx mori [10] was inactive.

As for `CCOC(=O)c1ccc(OCC(Oc2ccc(C)nc2)C(C)(C)C)cc1` (stereo not given), the outcome with Bombyx mori [5] was Active.

For the molecule `CCOC(=O)c1ccc(OCC(CC)Oc2ccc(C)nc2)cc1` (stereo not given), the result with Bombyx mori [5] was Active.

These data come from ChEMBL document CHEMBL3045014, “Synthesis and biological activity of novel anti-juvenile hormone agents” (J Pestic Sci, 2008).
